In article PMC11913368, “Antilipase activities of cultivated peppermint and rosemary essential oils: in vitro and in silico studies” (Turkish Journal of Biology, 2025):
In brackets after ≈: the same amount, converted by molar mass.

System: T1, Candida rugosa lipase (CRL)
T1 construct: gene LIP1
Test: p-nitrophenyl laurate hydrolysis, absorbance at […] nm
Type: biochemical, Diutina rugosa
Conditions: substrate p-NPL, pH 7, 37 °C, 15 min preincubation with enzyme; reference compound

Structure (SMILES) | IC50 value [µg/mL]
CCCCCCCCCCC[C@@H](C[C@@H]1OC(=O)[C@H]1CCCCCC)OC(=O)[C@H](CC(C)C)NC=O [Orlistat] | 60 ± 0 (≈ 121 µM)
O=c1c(O)c(-c2ccc(O)c(O)c2)oc2cc(O)cc(O)c12 [Quercetin] | 320 ± 4 (≈ 1060 µM)
